PubChem BioAssay AID192 (DTP/NCI, 2004)
Where “and” joins values, the source holds several entries; their conditions need not be identical. Equal values may be shown once. Toxic doses and inconclusive results are not listed. How the source made its calls: active means survival T/C of 150% or more; inactive means T/C below 125% in these data. Peptide text beside a SMILES is read from it. * marks the point of attachment. Trt = c1ccc(C(c2ccccc2)(c2ccccc2)*)cc1; Cbz = O=C(OCc1ccccc1)*

Test system: BDF1 mice, B16 melanoma ip, median survival T/C
Assay: NCI In Vivo Anticancer Drug Screen. Data for tumor model B16 Melanoma (intraperitoneal) in B6D2F1 (BDF1) mice
Details: endpoint: median survival time, higher = longer survival
Summary of the method: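 Antitumor activity is assessed in mice bearing a transplanted tumor, with survival or tumor size compared against vehicle-dosed controls and expressed as T/C.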

[1] = dose: 100.0 mg/kg/injection, schedule: Q01DX009 (ip), vehicle: saline with Tween-80
[2] = dose: 200.0 mg/kg/injection, schedule: Q01DX009 (ip), vehicle: saline with Tween-80
[3] = dose: 400.0 mg/kg/injection, schedule: Q01DX009 (ip), vehicle: saline with Tween-80
[4] = dose: 50.0 mg/kg/injection, schedule: Q01DX009 (ip), vehicle: Klucel (hydroxypropylcellulose) (HPC)
[5] = dose: 100.0 mg/kg/injection, schedule: Q01DX009 (ip), vehicle: Klucel (hydroxypropylcellulose) (HPC)
[6] = dose: 200.0 mg/kg/injection, schedule: Q01DX009 (ip), vehicle: Klucel (hydroxypropylcellulose) (HPC)
[7] = dose: 3.12 mg/kg/injection, schedule: Q01DX009 (ip), vehicle: saline
[8] = dose: 6.25 mg/kg/injection, schedule: Q01DX009 (ip), vehicle: saline
[9] = dose: 12.5 mg/kg/injection, schedule: Q01DX009 (ip), vehicle: saline
[10] = dose: 25.0 mg/kg/injection, schedule: Q01DX009 (ip), vehicle: saline
[11] = dose: 50.0 mg/kg/injection, schedule: Q04DX003 (ip), vehicle: saline
[12] = dose: 100.0 mg/kg/injection, schedule: Q04DX003 (ip), vehicle: saline
[13] = dose: 200.0 mg/kg/injection, schedule: Q04DX003 (ip), vehicle: saline

Measured: T/C

COc1c2occc2cc2ccc(=O)oc12
inactive: dose: 8.0 mg/kg/injection, schedule: Q01DX009 (ip), vehicle: saline with Tween-80 104 % of control | dose: 16.0 mg/kg/injection, schedule: Q01DX009 (ip), vehicle: saline with Tween-80 115 % of control | dose: 25.0 mg/kg/injection, schedule: Q01DX009 (ip), vehicle: saline with Tween-80 103 % of control | dose: 32.0 mg/kg/injection, schedule: Q01DX009 (ip), vehicle: saline with Tween-80 95 % of control | dose: 64.0 mg/kg/injection, schedule: Q01DX009 (ip), vehicle: saline with Tween-80 114 % of control | [1] 95 % of control | dose: 128.0 mg/kg/injection, schedule: Q01DX009 (ip), vehicle: saline with Tween-80 93 % of control

COc1ccccc1NC(=O)Oc1ccc(OCc2ccccc2)cc1
inactive: [1] 105 % of control | [2] 97 % of control | [3] 92 % of control

COc1c(O)cc2c(c1OC)-c1ccc(OC)c(=O)cc1[C@@H](NC(C)=O)CC2
inactive: dose: 0.62 mg/kg/injection, schedule: Q01DX009 (ip), vehicle: saline with Tween-80 123 % of control

C[C@]12CC[C@@H]3c4ccc(O)cc4CC[C@H]3[C@@H]1CC[C@@H]2O
inactive: dose: 6.25 mg/kg/injection, schedule: Q01DX009 (ip), vehicle: Klucel (hydroxypropylcellulose) (HPC) 97 % of control | dose: 12.5 mg/kg/injection, schedule: Q01DX009 (ip), vehicle: Klucel (hydroxypropylcellulose) (HPC) 94 % of control | dose: 25.0 mg/kg/injection, schedule: Q01DX009 (ip), vehicle: Klucel (hydroxypropylcellulose) (HPC) 93 % of control | [4] 97 % of control | [5] 88 % of control | [6] 87 % of control

CC1CN1P1(N2CC2C)=NP(N2CC2C)(N2CC2C)=NP(N2CC2C)(N2CC2C)=N1 (configuration not stated)
inactive: dose: 0.78 mg/kg/injection, schedule: Q01DX009 (ip), vehicle: saline 111 % of control | dose: 1.0 mg/kg/injection, schedule: Q01DX009 (ip), vehicle: saline 89 % of control and 99 % of control | dose: 1.0 mg/kg/injection, schedule: Q02DX009 (ip), vehicle: saline 91 % of control and 100 % of control | dose: 1.56 mg/kg/injection, schedule: Q01DX009 (ip), vehicle: saline 104 % of control | dose: 2.0 mg/kg/injection, schedule: Q01DX009 (ip), vehicle: saline 96 % of control and 103 % of control | dose: 2.0 mg/kg/injection, schedule: Q02DX009 (ip), vehicle: saline 100 % of control and 105 % of control and 107 % of control | [7] 105 % of control | dose: 4.0 mg/kg/injection, schedule: Q01DX009 (ip), vehicle: saline 110 % of control and 116 % of control | dose: 4.0 mg/kg/injection, schedule: Q02DX009 (ip), vehicle: saline 99 % of control and 103 % of control and 110 % of control | [8] 97 % of control and 117 % of control | dose: 8.0 mg/kg/injection, schedule: Q01DX009 (ip), vehicle: saline 107 % of control | dose: 8.0 mg/kg/injection, schedule: Q02DX009 (ip), vehicle: saline 108 % of control and 109 % of control and 112 % of control | [9] 116 % of control | dose: 16.0 mg/kg/injection, schedule: Q01DX009 (ip), vehicle: saline 117 % of control | dose: 16.0 mg/kg/injection, schedule: Q02DX009 (ip), vehicle: saline 101 % of control and 112 % of control and 116 % of control | [10] 114 % of control and 118 % of control | dose: 32.0 mg/kg/injection, schedule: Q01DX009 (ip), vehicle: saline 110 % of control | dose: 32.0 mg/kg/injection, schedule: Q02DX009 (ip), vehicle: saline 109 % of control | dose: 64.0 mg/kg/injection, schedule: Q01DX009 (ip), vehicle: saline 105 % of control | dose: 64.0 mg/kg/injection, schedule: Q02DX009 (ip), vehicle: saline 115 % of control

Nc1nc(SCc2ccccc2)c2[nH]cnc2n1
inactive: dose: 3.13 mg/kg/injection, schedule: Q01DX009 (ip), vehicle: saline sonified 95 % of control | dose: 6.25 mg/kg/injection, schedule: Q01DX009 (ip), vehicle: saline sonified 100 % of control | dose: 12.5 mg/kg/injection, schedule: Q01DX009 (ip), vehicle: saline sonified 93 % of control | dose: 25.0 mg/kg/injection, schedule: Q01DX009 (ip), vehicle: saline sonified 97 % of control

CC[P+](CC)(CC)c1ccccc1
inactive: [8] 101 % of control | [9] 110 % of control | [10] 111 % of control

COC(=O)C1=C(O)CN(C)C1=O
inactive: dose: 37.5 mg/kg/injection, schedule: Q04DX003 (ip), vehicle: saline 102 % of control | dose: 75.0 mg/kg/injection, schedule: Q04DX003 (ip), vehicle: saline 100 % of control | dose: 150.0 mg/kg/injection, schedule: Q04DX003 (ip), vehicle: saline 108 % of control

COC(=O)C(C)CN1CCCCC1 (configuration not stated)
inactive: [11] 111 % of control | [12] 111 % of control | [13] 105 % of control

COC1NC(=O)NC(=O)C1=[N+]=[N-] (configuration not stated)
inactive: dose: 2.0 mg/kg/injection, schedule: Q01DX009 (ip), vehicle: water 112 % of control

O=S(O)OS(=O)O
inactive: [11] 101 % of control | [12] 101 % of control | [13] 94 % of control

CCOC(=O)c1ccc(NC(=O)Nc2ccc(Cl)cc2)cc1
inactive: [5] 106 % of control | [6] 106 % of control | dose: 400.0 mg/kg/injection, schedule: Q01DX009 (ip), vehicle: Klucel (hydroxypropylcellulose) (HPC) 100 % of control

O=C(O)c1ccccc1C(=O)Nc1cc(Cl)ccc1Cl
inactive: [4] 100 % of control | [5] 94 % of control

COc1cccc(C(=O)c2ccncc2C)c1OC
inactive: dose: 25.0 mg/kg/injection, schedule: Q01DX009 (ip), vehicle: water 98 % of control | dose: 50.0 mg/kg/injection, schedule: Q01DX009 (ip), vehicle: water 96 % of control | dose: 100.0 mg/kg/injection, schedule: Q01DX009 (ip), vehicle: water 96 % of control

Oc1cccnc1CN1CCOCC1
inactive: [1] 106 % of control | [2] 109 % of control | [3] 100 % of control

C[C@]1(O)CC[C@H]2[C@@H]3CCC4=CC(=O)CC[C@]4(C)[C@@]3(F)[C@@H](O)C[C@@]21C
inactive: dose: 12.5 mg/kg/injection, schedule: Q02DX009 (ip), vehicle: Klucel (hydroxypropylcellulose) (HPC) 92 % of control | dose: 25.0 mg/kg/injection, schedule: Q02DX009 (ip), vehicle: Klucel (hydroxypropylcellulose) (HPC) 100 % of control | dose: 50.0 mg/kg/injection, schedule: Q02DX009 (ip), vehicle: Klucel (hydroxypropylcellulose) (HPC) 120 % of control | dose: 100.0 mg/kg/injection, schedule: Q02DX009 (ip), vehicle: Klucel (hydroxypropylcellulose) (HPC) 107 % of control | dose: 200.0 mg/kg/injection, schedule: Q02DX009 (ip), vehicle: Klucel (hydroxypropylcellulose) (HPC) 99 % of control | dose: 400.0 mg/kg/injection, schedule: Q02DX009 (ip), vehicle: Klucel (hydroxypropylcellulose) (HPC) 92 % of control

C=CCN(CC=C)CCN1CCN(CCCN2c3ccccc3Sc3ccc(C(F)(F)F)cc32)CC1
inactive: [7] 100 % of control | [8] 107 % of control | [9] 97 % of control

CCc1ccc(NC(=O)Nc2ccccc2OC)cc1
inactive: dose: 100.0 mg/kg/injection, schedule: Q01DX009 (ip), vehicle: gum acacia 105 % of control | dose: 200.0 mg/kg/injection, schedule: Q01DX009 (ip), vehicle: gum acacia 98 % of control | dose: 400.0 mg/kg/injection, schedule: Q01DX009 (ip), vehicle: gum acacia 101 % of control

COC(=O)C(CSC(c1ccccc1)(c1ccccc1)c1ccccc1)NC(=O)C(CC(N)=O)NC(=O)OCc1ccccc1 (stereo not drawn) (Cbz-Asn-Cys(Trt)-OMe; configuration not given here)
inactive: dose: 12.5 mg/kg/injection, schedule: Q01DX009 (ip), vehicle: distilled water + Tween-80 108 % of control and 110 % of control | dose: 25.0 mg/kg/injection, schedule: Q01DX009 (ip), vehicle: distilled water + Tween-80 102 % of control and 117 % of control | dose: 50.0 mg/kg/injection, schedule: Q01DX009 (ip), vehicle: distilled water + Tween-80 109 % of control | dose: 100.0 mg/kg/injection, schedule: Q01DX009 (ip), vehicle: distilled water + Tween-80 113 % of control | dose: 200.0 mg/kg/injection, schedule: Q01DX009 (ip), vehicle: distilled water + Tween-80 116 % of control

Cc1ccc(Cl)cc1NC(=O)c1cccc(C(=O)Nc2cc(Cl)ccc2C)c1
inactive: [4] 96 % of control | [5] 93 % of control

CNC(=S)N(C1CCCCC1)C1CCCCC1
inactive: dose: 50.0 mg/kg/injection, schedule: Q01DX009 (ip), vehicle: saline with Tween-80 101 % of control | [1] 95 % of control | [2] 98 % of control
